Assay results from ChEMBL document CHEMBL1201861, “Genomics of Drug Sensitity in Cancer screening data, Wellcome Trust Sanger Institute”.

How the values were obtained:
PANC-03-27 = assay: cells; format: functional, cell-based; conditions: Homo sapiens
Description: SANGER: Inhibition of human PANC-03-27 cell growth in a cell viability assay.

CAL-33 = assay: cells; format: functional, cell-based; conditions: Homo sapiens;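 note: growth inhibition of CAL-33 cells, read out with a cell viability assay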
Description: SANGER: Inhibition of human CAL-33 cell growth in a cell viability assay.

NCI-H716 = assay: cells; format: functional, cell-based, Homo sapiens; conditions: Homo sapiens, NCI-H716;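 note: growth inhibition of human NCI-H716 cells, measured by a cell viability assay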
Description: SANGER: Inhibition of human NCI-H716 cell growth in a cell viability assay.

NCI-H1563 = assay: cells; format: functional, cell-based; conditions: Homo sapiens;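 note: growth inhibition of human NCI-H1563 cells, read out with a cell viability assay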
Description: SANGER: Inhibition of human NCI-H1563 cell growth in a cell viability assay.

CA46 = assay: cells; format: functional, cell-based, Homo sapiens; conditions: Homo sapiens, CA46;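 note: growth inhibition of human CA46 cells, read out by a cell viability assay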
Description: SANGER: Inhibition of human CA46 cell growth in a cell viability assay.

SKG-IIIa = assay: cells; format: functional, cell-based; conditions: Homo sapiens;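 note: cell growth inhibition, read out with a cell viability assay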
Description: SANGER: Inhibition of human SKG-IIIa cell growth in a cell viability assay.

CMK = assay: cells; format: functional, cell-based, Homo sapiens; conditions: Homo sapiens, CMK;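 note: growth inhibition of CMK cells, read out as cell viability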
Description: SANGER: Inhibition of human CMK cell growth in a cell viability assay.

MC-IXC = assay: cells; format: functional, cell-based; conditions: Homo sapiens;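 note: growth inhibition of MC-IXC cells, read out with a cell viability assay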
Description: SANGER: Inhibition of human MC-IXC cell growth in a cell viability assay.

OE19 = assay: cells; format: functional, cell-based; conditions: Homo sapiens;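 note: growth inhibition of OE19 cells, measured through a cell viability read-out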
Description: SANGER: Inhibition of human OE19 cell growth in a cell viability assay.

NCI-H358 = assay: cells; format: functional, cell-based; conditions: Homo sapiens;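 note: growth inhibition of NCI-H358 human cells, read out with a cell viability assay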
Description: SANGER: Inhibition of human NCI-H358 cell growth in a cell viability assay.

KOSC-2 = assay: cells; format: functional, cell-based; conditions: Homo sapiens;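 note: growth inhibition of KOSC-2 cells, read out by a cell viability assay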
Description: SANGER: Inhibition of human KOSC-2 cell growth in a cell viability assay.

NCI-H661 = assay: cells; format: functional, cell-based; conditions: Homo sapiens;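 note: cell viability assay read-out, IC50 being the concentration that inhibits growth of the cells by half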
Description: SANGER: Inhibition of human NCI-H661 cell growth in a cell viability assay.

HCC1395 = assay: cells; format: functional, cell-based; conditions: Homo sapiens;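 note: growth inhibition of HCC1395 cells, read out by a cell viability assay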
Description: SANGER: Inhibition of human HCC1395 cell growth in a cell viability assay.

HGC-27 = assay: cells; format: functional, cell-based; conditions: Homo sapiens;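 note: growth inhibition of human HGC-27 cells, read out in a cell viability assay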
Description: SANGER: Inhibition of human HGC-27 cell growth in a cell viability assay.

HCC1599 = assay: cells; format: functional, cell-based, Homo sapiens; conditions: Homo sapiens, HCC1599;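 note: growth inhibition of HCC1599 cells, read out in a cell viability assay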
Description: SANGER: Inhibition of human HCC1599 cell growth in a cell viability assay.

OAW-28 = assay: cells; format: functional, cell-based; conditions: Homo sapiens;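 note: growth inhibition of OAW-28 cells, read out with a cell viability assay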
Description: SANGER: Inhibition of human OAW-28 cell growth in a cell viability assay.

CAL-62 = assay: cells; format: functional, cell-based; conditions: Homo sapiens;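 note: growth inhibition of CAL-62 cells, read out with a cell viability assay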
Description: SANGER: Inhibition of human CAL-62 cell growth in a cell viability assay.

CAPAN-1 = assay: cells; format: functional, cell-based; conditions: Homo sapiens;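 note: growth suppression of CAPAN-1 cells, read out by a cell viability assay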
Description: SANGER: Inhibition of human CAPAN-1 cell growth in a cell viability assay.

NCI-H2170 = assay: cells; format: functional, cell-based; conditions: Homo sapiens;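 note: cell viability assay measuring growth inhibition of human NCI-H2170 cancer cells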
Description: SANGER: Inhibition of human NCI-H2170 cell growth in a cell viability assay.

NCI-H596 = assay: cells; format: functional, cell-based; conditions: Homo sapiens;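 note: growth inhibition of NCI-H596 cells, read out with a cell viability assay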
Description: SANGER: Inhibition of human NCI-H596 cell growth in a cell viability assay.

PC-14 = assay: cells; format: functional, cell-based; conditions: Homo sapiens;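 note: cell viability assay measuring inhibition of PC-14 cell growth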
Description: SANGER: Inhibition of human PC-14 cell growth in a cell viability assay.

AU565 = assay: cells; format: functional, cell-based; conditions: Homo sapiens;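 note: cell viability assay measuring growth inhibition of human AU565 cells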
Description: SANGER: Inhibition of human AU565 cell growth in a cell viability assay.

NCI-H1623 = assay: cells; format: functional, cell-based; conditions: Homo sapiens;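 note: cell viability assay used as the read-out for growth inhibition of NCI-H1623 cells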
Description: SANGER: Inhibition of human NCI-H1623 cell growth in a cell viability assay.

CHP-126 = assay: cells; format: functional, cell-based, Homo sapiens; conditions: Homo sapiens, CHP-126
Description: SANGER: Inhibition of human CHP-126 cell growth in a cell viability assay.

SW1710 = assay: cells; format: functional, cell-based; conditions: Homo sapiens;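 note: growth inhibition of SW1710 cells, determined with a cell viability assay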
Description: SANGER: Inhibition of human SW1710 cell growth in a cell viability assay.

HSC-2 = assay: cells; format: functional, cell-based; conditions: Homo sapiens;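 note: growth inhibition of human HSC-2 cells, read out by a cell viability assay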
Description: SANGER: Inhibition of human HSC-2 cell growth in a cell viability assay.

BFTC-905 = assay: cells; format: functional, cell-based; conditions: Homo sapiens
Description: SANGER: Inhibition of human BFTC-905 cell growth in a cell viability assay.

SW1990 = assay: cells; format: functional, cell-based; conditions: Homo sapiens
Description: SANGER: Inhibition of human SW1990 cell growth in a cell viability assay.

M059J = assay: cells; format: functional, cell-based; conditions: Homo sapiens;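 note: growth inhibition of M059J cells, read out with a cell viability assay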
Description: SANGER: Inhibition of human M059J cell growth in a cell viability assay.

AN3-CA = assay: cells; format: functional, cell-based; conditions: Homo sapiens;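 note: growth inhibition of human AN3-CA cells measured by a cell viability assay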
Description: SANGER: Inhibition of human AN3-CA cell growth in a cell viability assay.

NUGC-3 = assay: cells; format: functional, cell-based; conditions: Homo sapiens;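 note: growth inhibition of human NUGC-3 cells, read out with a cell viability assay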
Description: SANGER: Inhibition of human NUGC-3 cell growth in a cell viability assay.

5637 = assay: cells; format: functional, cell-based; conditions: Homo sapiens
Description: SANGER: Inhibition of human 5637 cell growth in a cell viability assay.

SK-MEL3 = assay: cells; format: functional, cell-based, SK-MEL-3; conditions: Homo sapiens;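 note: growth inhibition of human SK-MEL-3 cells, read out with a cell viability assay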
Description: SANGER: Inhibition of human SK-MEL-3 cell growth in a cell viability assay.

D-336MG = assay: cells; format: functional, cell-based, Homo sapiens; conditions: Homo sapiens, D-336MG
Description: SANGER: Inhibition of human D-336MG cell growth in a cell viability assay.

DOK = assay: cells; format: functional, cell-based; conditions: Homo sapiens;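 note: cell viability assay read-out, values reflect inhibition of cell growth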
Description: SANGER: Inhibition of human DOK cell growth in a cell viability assay.

NCI-H2122 = assay: cells; format: functional, cell-based; conditions: Homo sapiens;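 note: growth inhibition of the cells, read out with a cell viability assay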
Description: SANGER: Inhibition of human NCI-H2122 cell growth in a cell viability assay.

SCC-25 = assay: cells; format: functional, cell-based; conditions: Homo sapiens;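 note: growth inhibition of SCC-25 cells, measured with a cell viability assay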
Description: SANGER: Inhibition of human SCC-25 cell growth in a cell viability assay.

RD = assay: cells; format: functional, cell-based; conditions: Homo sapiens
Description: SANGER: Inhibition of human RD cell growth in a cell viability assay.

COR-L279 = assay: SANGER: Inhibition of human COR-L279 cell growth in a cell viability assay.; format: functional, cell-based; conditions: Homo sapiens, COR-L279
CAL-148 = assay: cells; format: functional, cell-based, Homo sapiens; conditions: Homo sapiens, CAL-148
Description: SANGER: Inhibition of human CAL-148 cell growth in a cell viability assay.

IGR-1 = assay: cells; format: functional, cell-based; conditions: Homo sapiens;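 note: growth inhibition of human IGR-1 cells, read out with a cell viability assay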
Description: SANGER: Inhibition of human IGR-1 cell growth in a cell viability assay.

PFSK-1 = assay: cells; format: functional, cell-based; conditions: Homo sapiens;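 note: cell viability assay measuring how strongly compounds suppress growth of human PFSK-1 cells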
Description: SANGER: Inhibition of human PFSK-1 cell growth in a cell viability assay.

SK-MEL-30 = assay: cells; format: functional, cell-based; conditions: Homo sapiens;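 note: growth inhibition of SK-MEL-30 cells, determined with a cell viability assay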
Description: SANGER: Inhibition of human SK-MEL-30 cell growth in a cell viability assay.

REH = assay: cells; format: functional, cell-based, Homo sapiens; conditions: Homo sapiens, REH;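 note: growth inhibition of REH cells determined with a cell viability read-out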
Description: SANGER: Inhibition of human REH cell growth in a cell viability assay.

DMS-273 = assay: cells; format: functional, cell-based; conditions: Homo sapiens
Description: SANGER: Inhibition of human DMS-273 cell growth in a cell viability assay.

HT-29 = assay: cells; format: functional, cell-based; conditions: Homo sapiens;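 note: growth inhibition of human HT-29 cells, read out by a cell viability assay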
Description: SANGER: Inhibition of human HT-29 cell growth in a cell viability assay.

THP-1 = assay: cells; format: functional, cell-based, Homo sapiens; conditions: Homo sapiens, THP-1;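 note: growth inhibition of THP-1 cells, read out via a cell viability assay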
Description: SANGER: Inhibition of human THP-1 cell growth in a cell viability assay.

NCI-H2452 = assay: cells; format: functional, cell-based; conditions: Homo sapiens;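 note: growth inhibition of NCI-H2452 cells, read out with a cell viability assay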
Description: SANGER: Inhibition of human NCI-H2452 cell growth in a cell viability assay.

CP50-MEL-B = assay: cells; format: functional, cell-based; conditions: Homo sapiens;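 note: growth inhibition of the human cell line, measured with a cell viability read-out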
Description: SANGER: Inhibition of human CP50-MEL-B cell growth in a cell viability assay.

LU-165 = assay: cells; format: functional, cell-based, Homo sapiens; conditions: Homo sapiens, LU-165
Description: SANGER: Inhibition of human LU-165 cell growth in a cell viability assay.

SCC-9 = assay: cells; format: functional, cell-based; conditions: Homo sapiens;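 note: Read-out is a cell viability assay, with values giving inhibition of cell growth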
Description: SANGER: Inhibition of human SCC-9 cell growth in a cell viability assay.

Ca9-22 = assay: cells; format: functional, cell-based; conditions: Homo sapiens;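 note: growth inhibition of Ca9-22 cells, read out with a cell viability assay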
Description: SANGER: Inhibition of human Ca9-22 cell growth in a cell viability assay.

UACC-893 = assay: cells; format: functional, cell-based; conditions: Homo sapiens
Description: SANGER: Inhibition of human UACC-893 cell growth in a cell viability assay.

MDA-MB-157 = assay: cells; format: functional, cell-based; conditions: Homo sapiens
Description: SANGER: Inhibition of human MDA-MB-157 cell growth in a cell viability assay.

Huh-7 = assay: cells; format: functional, cell-based; conditions: Homo sapiens;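 note: HuH-7 cell growth inhibition, read out with a cell viability assay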
Description: SANGER: Inhibition of human HuH-7 cell growth in a cell viability assay.

NCCIT = assay: SANGER: Inhibition of human NCCIT cell growth in a cell viability assay.; format: functional, cell-based; conditions: Homo sapiens, NCCIT
IMR-5 = assay: cells; format: functional, cell-based, Homo sapiens; conditions: Homo sapiens, IMR-5; read-out: IC50;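 note: growth inhibition of human IMR-5 cells, read out with a cell viability assay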
Description: SANGER: Inhibition of human IMR-5 cell growth in a cell viability assay.

G-361 = assay: cells; format: functional, cell-based; conditions: Homo sapiens
NCI-H748 = assay: cells; format: functional, cell-based, Homo sapiens; conditions: Homo sapiens, NCI-H748;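 note: growth inhibition of NCI-H748 cells, measured by a cell viability assay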
Description: SANGER: Inhibition of human NCI-H748 cell growth in a cell viability assay.

Measured: IC50

O=S(=O)(O)c1ccc2cc(/N=N/c3cc(S(=O)(=O)O)c4cccnc4c3O)ccc2c1
> 16000 nM: PANC-03-27 | CAL-33 | NCI-H716 | NCI-H1563 | CA46 | SKG-IIIa | CMK | MC-IXC | OE19 | NCI-H358 | KOSC-2 | NCI-H661 | HCC1395 | HGC-27 | HCC1599 | OAW-28 | CAL-62 | CAPAN-1 | NCI-H2170 | NCI-H596 | PC-14 | AU565 | NCI-H1623 | CHP-126 | SW1710 | HSC-2 | BFTC-905 | SW1990 | NUGC-3 | 5637 | SK-MEL3 | D-336MG | DOK | NCI-H2122 | SCC-25 | RD | COR-L279 | CAL-148 | IGR-1 | PFSK-1 | SK-MEL-30 | REH | DMS-273 | HT-29 | THP-1 | NCI-H2452 | CP50-MEL-B | LU-165 | SCC-9 | Ca9-22 | UACC-893 | MDA-MB-157 | Huh-7 | NCCIT | IMR-5 | G-361 | NCI-H748
14100 nM: AN3-CA
14900 nM: M059J

Cc1ccc(C(=O)Nc2ccc(CN3CCN(C)CC3)c(C(F)(F)F)c2)cc1C#Cc1cnc2cccnn12 [PONATINIB]
278 nM: Huh-7
> 512 nM: PANC-03-27 | CAL-33 | NCI-H1563 | SKG-IIIa | CMK | MC-IXC | OE19 | NCI-H358 | KOSC-2 | NCI-H661 | HCC1395 | HCC1599 | OAW-28 | CAL-62 | CAPAN-1 | NCI-H2170 | NCI-H596 | PC-14 | AU565 | NCI-H1623 | CHP-126 | HSC-2 | BFTC-905 | SW1990 | M059J | NUGC-3 | 5637 | SK-MEL3 | D-336MG | DOK | NCI-H2122 | SCC-25 | RD | COR-L279 | CAL-148 | IGR-1 | PFSK-1 | SK-MEL-30 | REH | DMS-273 | HT-29 | THP-1 | NCI-H2452 | CP50-MEL-B | LU-165 | SCC-9 | Ca9-22 | UACC-893 | MDA-MB-157 | NCCIT | IMR-5 | G-361 | NCI-H748
163 nM: NCI-H716
294 nM: HGC-27
365 nM: SW1710
175 nM: CA46
18.7 nM: AN3-CA
